Columns and labels:
[1] = tested on: arachidonic acid-induced ear swelling; assay: topical arachidonic acid-induced ear swelling model in mice; assay type: in vivo
Procedure: The test compound, indomethacin (positive control), and vehicle were evaluated for anti-inflammatory activity in a topical arachidonic acid-induced ear swelling model in mice. Male ICR mice weighing 22±2 g were used and randomly divided; the test compound and vehicle control had 10 mice, and indomethacin had 5 mice. Arachidonic Acid (0.5 mg in 20 μl of acetone:ethanol/1:1) was applied topically to the anterior and posterior surfaces of the right ear of each mouse. Test substances and vehicle, as listed in Table 2 were similarly applied 30 min before and 15 min after arachidonic acid application. The thickness of the right ear and the left ear was measured and the difference calculated as an indication of the inflammation in the right ear. Ear swelling was measured by a Dyer model micrometer gauge at 60 and 90 minutes after arachidonic acid application as an index of inflammation. Percent inhibition was calculated according to the formula: Ic−It/Ic×100, where Ic and It refers to increase of ear thickness (mm) in control and treated mice, respectively. ANOVA and Dunnett's test were employed to ascertain significant difference between vehicle control and treated groups. Significance is set at P<0.05 level.

[2] = tested on: tail flick response to heat stimulus; assay: tail flick test in mice (49° C. water bath); assay type: in vivo
Procedure: The tail flick test is a test of the pain response in animals. The tail flick test is used in basic pain research and to measure the effectiveness of analgesics, by observing the tail flick reaction to heat in an animal. This test assesses the nociceptive response to a local pain stimulus, and the ability of a drug to inhibit this response.
Vehicle control (DMSO) and test compound 3, 4-bis-benzylsulfonylbutanenitrile in DMSO were administered by oral gavage to mice with a volume of 5 mL/kg, immediately prior to testing, at time zero. The test compound was administered at a dosage of 500 mg/kg in DMSO. Positive control morphine in water was administered at time zero by subcutaneous injection at 8 mg/kg to mice. […] The purpose of morphine is […] to serve as a comparison with the test compound. Each group had 10 mice.
The response of mice to heat stimulus was evaluated by measuring the time of tail-flick or tail-flick latency from 49° C. water bath. Briefly, the animal was held with its tail hanging down. Approximately 2 inches of the tail was immersed in a beaker of water at 38±1° C. for about 30 seconds, and this was done twice to acclimate the animal to the procedure.
Subsequently, approximately 2 inches of the tail was immersed in a beaker of water at 49±1° C., at which point a timer was started.
Tail flick measurements were made at 0, 30, 60, and 120 minutes post administration of the dosage of test compound, vehicle, or morphine. An ANOVA was done, and if p<0.05, a Dunnett's t test was employed to calculate significant difference between vehicle control and test compound treated groups. A pairwise Student's t test was used to calculate differences between the morphine group and the control group. […] Analysis with p-values<0.05 is considered significant.

For `COc1ccc2c(c1)c(CC(=O)O)c(C)n2C(=O)c1ccc(Cl)cc1` [Indomethacin, reference compound], the “% Inhibition of ear swelling” value ([1]; topical, applied 30 min before and 15 min after arachidonic acid, measured at 90 minutes, relative to vehicle, indomethacin 14 mM (0.1 mg/20 μL), test compound 375 mM (2.8 mg/20 μL)) was 58%.
In the case of `CN1CC[C@]23c4c5ccc(O)c4O[C@H]2[C@@H](O)C=C[C@H]3[C@H]1C5` [morphine], the “tail flick latency compared with vehicle-treated mice” value ([2]; morphine 8 mg/kg subcutaneous, 30 minutes post dosing) is reported as “statistically significant”, the “tail flick latency compared with vehicle-treated mice” value ([2]; morphine 8 mg/kg subcutaneous, 60 minutes post dosing) is reported as “statistically significant” and the “tail flick latency compared with vehicle-treated mice” value ([2]; morphine 8 mg/kg subcutaneous, 120 minutes post dosing) is reported as “not”.
With `N#CCC(CS(=O)(=O)Cc1ccccc1)S(=O)(=O)Cc1ccccc1` (stereo not drawn) [3,4-bis-benzylsulfonylbutanenitrile, 3,4-bis-benzylsulfonylbutanenitrile] the “tail flick latency compared with vehicle-treated mice” value ([2]; test compound 500 mg/kg in DMSO, oral, 120 minutes post dosing) was “statistically significant” and the “anti-inflammatory activity in the mouse ear swelling model (in words)” value ([1]; applied topically, inflammation induced by arachidonic acid) was “anti-inflammatory”.
